# Patent US7456154B2 (priority 2001, dated 2008)
# Experiments:
# [1] = test system: Cynomolgus monkeys; assay: 7-day toxicology study of hEN101 in Cynomolgus monkeys; type: in vivo, Cynomolgus monkey
# Experimental: This experiment was conducted with six (3 males and 3 females) purpose-bred 15 month-old (young adult) Cynomolgus monkeys, divided in three groups (1, 2 and 3) of one male and one female each. Groups 1 and 2 received hEN101 daily by o.g. for a period of 7 days, at a concentration of 0.15 and 0.50 μg/g/day, respectively. Group 3 received daily i.v. injections of hEN101 for a period of 7 days at a dosage of 0.50 μg/g/day.
# Over a 12 hour period, plasma samples were obtained during the second treatment day to investigate the toxicokinetic profile at each dosage. The toxicology study consisted of checking the animals during the 7 days of treatment for gross signs of toxicity by the following parameters: mortality, body weight, food consumption, electrocardiography, blood pressure, hematology (peripheral blood), and blood chemistry. At 7 days the monkeys were sacrificed and examined post-mortem for macroscopic pathology and organ weight. Fixed sections of brain (cerebellum, cerebrum, midbrain, medulla), caecum, colon, duodenum, heart (auricular and ventriclar regions), ileum, jejunum, kidneys (cortex, medulla, papilla regions), liver (two main lobes), lungs (two major lobes, including bronchi), lymph nodes (mandibular and mesenteric), esophagus, rectum, sciatic nerve, skeletal muscle (thigh), spinal cord (transverse and longitudinal sections at cervical level), spleen and stomach (body and antrum) were stained with hematoxylin/eosin to reveal necrosis or cell death.
# [2] = test system: AChE-S mRNA; assay: In situ hybridization of AChE-S mRNA in monkey spinal cord; type: in vivo, Cynomolgus monkey; conditions: oral 0.15 and 0.50, i.v. 0.50 μg/g/day, 7 days
# Experimental: (§1) In situ hybridization: Tissues were fixed in 4% paraformaldehyde and cut into 7 μm paraffin embedded sections. Spinal cord sections were deparaffinized, rehydrated using serial ethanol dilutions and permeabilized with proteinase K (10 μg/ml at room temp.). Slides were exposed to 5′ biotinylated, fully 2′-oxymethylated AChE-R or AChE-S-specific 50-mer cRNA probes complementary to human ACHE pseudo-intron 4 or exon 6, respectively [Grisaru et al. (2001) id ibid.]. Hybridization was performed overnight at 52° C. in hybridization mixture containing 10 μg/ml probe, 50 μg/ml yeast tRNA, 50 μg/ml heparin and 50% formamide in 375 mM Na chloride, 37.5 mM Na citrate, pH 4.5. For monkey sections, the probe was constructed according to the human AChE-R sequence; for rat sections, according to the mouse sequence. Slides were washed to remove non-hybridized probe, blocked with 1% skim milk containing 0.01% Tween-20 and 2 mM levamisole, an alkaline phosphatase inhibitor used to suppress non-specific staining and incubate with streptavidin-alkaline phosphatase (Amersham Pharmacia). Fast Red™ substrate (Roche Diagnostics) was used for detection. DAPI staining (Sigma Chemical Co., St. Louis, Mo., USA) served to visualize nuclei. Microscope images were analyzed with Image Pro Plus 4.0 (Media Cybernetics) software. […]
# [3] = test system: MG patients; assay: Phase Ib clinical trial of oral hEN101 in MG patients (QMG score); type: in vivo, human; conditions: for Decrease in mean total QMG score from baseline: baseline mean total score 13.2
# Experimental: Protocol for Phase Ib Clinical Trial of MG patients using hEN101: Patients were hospitalized and pyridostigmine was discontinued for 12-18 hours before EN101 testing. Assessment of MG status was performed first at entry, then after pyridostigmine stoppage, and regularly after EN101 treatment using a Quantitative MG (QMG) score. Escalating oral doses of EN101 (10-150 μg/kg) were given in the first day (day 1) followed by a daily dose of 500 μg/kg for 3 days (days 2-4). Days 5 and 6 were washout period without pyridostigmine, and restitution of pyridostigmine occurred when it became necessary. Patients were monitored for 1 month thereafter, with three visits as out-patients.
# The following parameters were used as inclusion criteria: • Class II and above, according to MGFA classification (myasthenia gravis standard clinical classification of the disease severity score); • Age 18-70; • Seropositive for AChR antibodies; • Patients under pyridostigmine (180 mg/day) treatment without concomitant immunosuppressants; • Stable for 3 months, with no PE (plasma exchange) for 6 months; • No other major or active diseases.
# Evaluation of the MG status of each patient was based on the following parameters: • (a) QMG scoring (maximum value of 9), based on the measurements of: • Fatigue in each limb (4); • Fatigue of the neck (1); • Swallowing rate (1); • Power in the hands (2); • Respirometry (1). • These measurements were taken daily, 4 times per day, and averaged for days 2-6. • (b) Patient's subjective report; • (c) Vital signs, clinical chemistry, hematology, urinalysis, ECG and physical examination, recorded daily.
# 16 patients with stable generalized MG requiring constant AChE inhibitors (pyridostigmine) for daily function were recruited, after approval by human ethics committees of the respective hospitals involved in the present trial (Hadassah Medical Center, Jerusalem, Israel and Greater Manchester Neurosciences Center, Hope Hospital, Salford, England).
# [4] = test system: healthy rats; assay: Treadmill running time of healthy rats; type: in vivo, rat; conditions: 250 μg/Kg
# Experimental: Exercise training on treadmill: To establish a clinical measure of neuromuscular performance in EAMG rats, a treadmill assay was performed. Animals were placed on an electrically powered treadmill [Moran et al. (1996) J Therm Biol 21, 171-181] at 25 m/min (a physical effort of moderate intensity) until visibly fatigued. The amount of time the rats were able to run was recorded before and after anti-sense or Mestinon® treatment.
# [5] = test system: AChE-R mRNA; assay: In situ hybridization of AChE-R mRNA in rat muscle; type: in vivo; conditions: healthy and EAMG rats
# Experimental: as §1
# [6] = test system: AChE-R mRNA; assay: In situ hybridization of AChE-R mRNA in rat spinal cord neurons; type: in vivo; conditions: 500 μg/kg i.v. daily, 7 days
# Experimental: FIG. 17 Effect of rEN101 on AChE-R mRNA in rat spinal cord neurons. The presence of AChE-R mRNA-positive cells was determined in spinal cord section of rats that had been treated for 7 days with rEN101 (500 μg/kg. i.v., daily).
# In situ hybridization: Tissues were fixed in 4% paraformaldehyde and cut into 7 μm paraffin embedded sections. Spinal cord sections were deparaffinized, rehydrated using serial ethanol dilutions and permeabilized with proteinase K (10 μg/ml at room temp.). Slides were exposed to 5′ biotinylated, fully 2′-oxymethylated AChE-R or AChE-S-specific 50-mer cRNA probes complementary to human ACHE pseudo-intron 4 or exon 6, respectively [Grisaru et al. (2001) id ibid.]. Hybridization was performed overnight at 52° C. in hybridization mixture containing 10 μg/ml probe, 50 μg/ml yeast tRNA, 50 μg/ml heparin and 50% formamide in 375 mM Na chloride, 37.5 mM Na citrate, pH 4.5. For monkey sections, the probe was constructed according to the human AChE-R sequence; for rat sections, according to the mouse sequence. Slides were washed to remove non-hybridized probe, blocked with 1% skim milk containing 0.01% Tween-20 and 2 mM levamisole, an alkaline phosphatase inhibitor used to suppress non-specific staining and incubate with streptavidin-alkaline phosphatase (Amersham Pharmacia). […] Microscope images were analyzed with Image Pro Plus 4.0 (Media Cybernetics) software.
Substance,"Post-mortem finding at injection site ([1]; i.v. 0.50 μg/g/day, 7 days)","Animals with slight healing erosions in the body of the stomach post-mortem ([1]; in each group, possibly associated with treatment)","Clinical investigations for toxicity ([1]; o.g. 0.15 or 0.50 μg/g/day, i.v. 0.50 μg/g/day, 7 days)",AChE-S mRNA in spinal cord [2],Decrease in mean total QMG score from baseline ([3]; day 2),Decrease in mean total QMG score from baseline ([3]; day 3),Decrease in mean total QMG score from baseline ([3]; day 4),Decrease in mean total QMG score from baseline ([3]; day 5),Decrease in mean total QMG score from baseline ([3]; day 6),"Vital signs, chemical chemistry, hematology, urinalysis, ECG and physical examination ([3]; experimental period and month following discharge)","Cholinergic side effects ([3]; human, in vivo)","Duration of improved scores following the final dose ([3]; human, in vivo)","Serious adverse effects ([3]; human, in vivo)","Patients with clear symptomatic improvement ([3]; oral, 10-150 μg/kg day 1, 500 μg/kg days 2-4)",Effect on treadmill running of healthy animals [4],AChE-R mRNA labeling in muscle [5],AChE-R mRNA in rat spinal cord neurons [6]
5′-CTGCCACGTTCTCCTGCACC-3′ [hEN101],some irritation of the perivascular tissue at the site of intravenous injection,1 of 2,no toxicological effects,no apparent reduction,3.0,4.8,5.7,5.5,6.0,remained unchanged,not reported,up to 72 hours,No serious adverse effects were observed,15 out of 16,–,–,–
5′-CTGCGATATTTTCTTGTACC-3′ (chemistry not given here) [rEN101],–,–,–,–,–,–,–,–,–,–,–,–,–,–,not significantly affected,almost to the limit of detection,does not suppress AChE-R mRNA
